Experimental data from ChEMBL document CHEMBL1201862, “PubChem BioAssay data set” (2004).
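Method: 48-hour compound exposure of cells in 96-well plates, five concentrations, linear interpolation of endpoints. GI50: concentration for 50% inhibition of growth.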 Activity calls are given as the source filed them. Rule as the data show it: active = GI50 up to about 1.1 µM and inactive = higher.

Columns and labels:
Assay in all cases: DTP human tumour cell line panel, 48 h
OVCAR-5 = system: OVCAR-5
SF-539 = system: SF-539
COLO 205 = system: COLO 205
SNB-19 = system: SNB-19
UACC-257 = system: UACC-257
HCC 2998 = system: HCC 2998
NCI-H460 = system: NCI-H460
CCRF-CEM = system: CCRF-CEM
SK-OV-3 = system: SK-OV-3
BT-549 = system: BT-549
K562 = system: K562
NCI-H522 = system: NCI-H522
786-0 = system: 786-0
TK-10 = system: TK-10
DU-145 = system: DU-145
U-251 = system: U-251
SW-620 = system: SW-620
HCT-116 = system: HCT-116
HT-29 = system: HT-29
Hs-578T = system: Hs-578T
SNB-75 = system: SNB-75
A498 = system: A498
SR = system: SR
NCI-H23 = system: NCI-H23
MDA-MB-435 = system: MDA-MB-435
MDA-MB-231 = system: MDA-MB-231
RPMI-8226 = system: RPMI-8226
MCF7 = system: MCF7
KM12 = system: KM12
LOX IMVI = system: LOX IMVI
UO-31 = system: UO-31
HL-60 = system: HL-60
SF-295 = system: SF-295
ACHN = system: ACHN
OVCAR-8 = system: OVCAR-8
NCI/ADR-RES = system: NCI/ADR-RES
MOLT-4 = system: MOLT-4
OVCAR-3 = system: OVCAR-3
M14 = system: M14
SK-MEL-28 = system: SK-MEL-28
HCT-15 = system: HCT-15
Malme-3M = system: Malme-3M
MDA-N = system: MDA-N
HOP-62 = system: HOP-62
PC-3 = system: PC-3
NCI-H226 = system: NCI-H226
EKVX = system: EKVX
HOP-92 = system: HOP-92
A549 = system: A549
SF-268 = system: SF-268
UACC-62 = system: UACC-62
IGROV-1 = system: IGROV-1
CAKI-1 = system: CAKI-1
SK-MEL-5 = system: SK-MEL-5
RXF 393 = system: RXF 393
SN12C = system: SN12C
T47D = system: T47D
SK-MEL-2 = system: SK-MEL-2
OVCAR-4 = system: OVCAR-4

Measured: GI50

Cc1c(/C=N/NC(=S)N2CCCCC2)c(=O)n(-c2ccccc2)n1C
inactive: OVCAR-5 > 100 µM | SF-539 > 100 µM | COLO 205 29.9 µM | SNB-19 71.4 µM | UACC-257 > 100 µM | HCC 2998 75 µM | NCI-H460 37.1 µM | CCRF-CEM 23.2 µM | SK-OV-3 68.1 µM | BT-549 > 100 µM | K562 36.6 µM | NCI-H522 39.1 µM | 786-0 73.5 µM | TK-10 61.2 µM | DU-145 > 100 µM | U-251 83.2 µM | SW-620 74.1 µM | HCT-116 57.8 µM | HT-29 73.8 µM | Hs-578T 39.3 µM | SNB-75 > 100 µM | A498 24.3 µM | SR > 100 µM | NCI-H23 > 100 µM | MDA-MB-435 > 100 µM | MDA-MB-231 > 100 µM | RPMI-8226 67.5 µM | MCF7 43.9 µM | KM12 97.1 µM | LOX IMVI 70.5 µM | UO-31 42.4 µM | HL-60 14 µM | SF-295 40.7 µM | ACHN 32.4 µM | OVCAR-8 42.8 µM | NCI/ADR-RES 28.9 µM | MOLT-4 31.3 µM | OVCAR-3 48.4 µM | M14 61.9 µM | SK-MEL-28 75.2 µM | Malme-3M 54.1 µM | MDA-N > 100 µM | HOP-62 88.9 µM | PC-3 > 100 µM | NCI-H226 > 100 µM | EKVX 43.8 µM | HOP-92 > 100 µM | A549 55.3 µM | SF-268 29.5 µM | UACC-62 > 100 µM | IGROV-1 > 100 µM | CAKI-1 77.1 µM | SK-MEL-5 38.5 µM | RXF 393 26.5 µM
23.1 µM: HCT-15

COc1cccc(CCNc2c(C#N)c3nc4ccccc4n3c3ccccc23)c1
inactive: OVCAR-5 7 µM | SK-OV-3 1.18 µM | SN12C 3.19 µM | T47D 2.17 µM | TK-10 4.6 µM | DU-145 2.29 µM | MDA-MB-231 2.33 µM | SK-MEL-2 > 41.6 µM | UO-31 2.81 µM | OVCAR-3 3.87 µM | M14 4.23 µM | SK-MEL-28 1.22 µM | HOP-62 10.5 µM | OVCAR-4 2.79 µM | NCI-H226 1.58 µM | EKVX 2.09 µM | HOP-92 29.6 µM | A549 1.33 µM | SF-268 2.06 µM
0.423 µM: HCT-15
active: SF-539 0.548 µM | COLO 205 0.447 µM | SNB-19 0.787 µM | UACC-257 0.851 µM | HCC 2998 0.643 µM | NCI-H460 0.378 µM | CCRF-CEM 0.736 µM | BT-549 0.618 µM | K562 0.141 µM | NCI-H522 0.063 µM | 786-0 0.541 µM | U-251 0.721 µM | SW-620 0.51 µM | HCT-116 0.405 µM | HT-29 0.337 µM | Hs-578T 0.498 µM | SNB-75 0.404 µM | A498 0.592 µM | SR 0.177 µM | NCI-H23 0.741 µM | MDA-MB-435 0.118 µM | RPMI-8226 0.426 µM | MCF7 0.0775 µM | KM12 0.258 µM | LOX IMVI 0.63 µM | HL-60 0.34 µM | SF-295 0.364 µM | ACHN 0.998 µM | OVCAR-8 0.807 µM | NCI/ADR-RES 0.333 µM | MOLT-4 0.769 µM | Malme-3M 0.239 µM | PC-3 1.11 µM | UACC-62 0.316 µM | IGROV-1 0.433 µM | CAKI-1 1.05 µM | SK-MEL-5 0.186 µM | RXF 393 0.607 µM
